This is an account of results in patent US4778818A, “Substituted 2-(heteroaryl-2-propenyl)phenols useful as anti-inflammatory agents” (Merck & Co., Inc., priority 1987, dated 1988).

Assay [1] deals with inflammatory responses elicited by topically applied phorbol myristate acetate (PMA) or topically applied archidonic acid (AA) in mouse ear. Nature of the assay: Topical mouse ear assay (TME). The assay is classed as in vivo, mice. The protocol:
The topical mouse ear assay (TME) was used to evaluate the novel compounds of the present invention for its effect on inflammatory responses elicited by topically applied phorbol myristate acetate (PMA) or topically applied archidonic acid (AA).
TABLE I Topical Mouse Ear Assay
Method: The right ears of mice (5 mice per group) were treated topically with either […] or 1000 μg AA alone or with the test compound in 25 μl of vehicle. The vehicle was water/pyridine/acetone (1:2:97). A control group of mice received the vehicle only. The mice were allowed food and water ad libitum during the treatment period; 2 hours for AA and 4 hours for PMA. The mice were sacrificed by cervical dislocation and a 6 mm diameter disc of tissue punched from both the treated and untreated ears. The tissue biopsies were immediately weighed and the weight increase of the treated ear relative to the weight of the untreated ear determined.
At the termination of the experiment, the amount of radioactivity in both the treated and untreated ear biopsies was determined and the increased amount of radioactivity in the treated tissue relative to the amount of radioactive in the untreated tissue determined.
As a measure of PMN infiltration, the amount of myeloperoxidase (MPO) activity in the same tissues was determined. The tissue biopsies were homogenized into 1 ml 0.5% hexadecyltrimethylammonium bromide and centrifuged for 45 min. at 1200×g. Aliquots 40 μl, of the supernatant phases were assayed for MPO activity by a colorimetric method devised by H. Dougherty for automated Titertek analysis. The MPO activity is expressed as the OD450 of the treated ear homogenate minus the OD450 of the non-treated ear homogenate.
All of the data are expressed as the mean±SEM, N=5 mice/group.

The test system is the same in assay [2]. The conditions noted are these: previously established, in words; cited from earlier work.

For `OCc1ccccc1/C=C/Cc1cc2c(cc1O)CCO2` [A, 5-hydroxy-6-(2-hydroxymethylcinnamyl)-2,3-dihydrobenzofuran], the “Edema (% inhibition)” value came to 37% in assay [1] (dosage 50 μg), 54% in assay [1] (dosage 150 μg) and 88% in assay [1] (dosage 300 μg).

On to `COc1ccc2c(c1)c(CC(=O)O)c(C)n2C(=O)c1ccc(Cl)cc1` [Indomethacin], for which the “Edema (% inhibition)” value in assay [1] (dosage 150 μg) worked out at 51%. Moreover, the “activity in the topical mouse ear assay” value in assay [2] is recorded as “active”.

In the case of `C[C@@H]1C[C@H]2[C@@H]3CCC4=CC(=O)C=C[C@]4(C)[C@@]3(F)[C@@H](O)C[C@]2(C)[C@@]1(O)C(=O)CO` [Dexamethasone], in assay [1] (dosage 5 μg), the “Edema (% inhibition)” value is 60%. Also, the “activity in the topical mouse ear assay” value in assay [2] is on record as “active”.
